Measured values: PMC12320299 (Chemical Science, 2025)

System: SW480 cancer cells
Assay: Proteome profiling of compound-treated SW480 cancer cells (24 h, approx. IC50, CYT and NE fractions)
Format: cell-based, human
Method: To gain insight into potential modes of action and derive structure–activity relationships on a molecular level, proteomic profiling experiments were carried out based on label-free quantification (LFQ) by nano-liquid chromatography tandem mass spectrometry (nLC-MS/MS). […] Six replicates were used per condition. The perturbations were evaluated at subcellular resolution by fractionating cells into cytoplasmic (CYT) and nuclear (NE) protein fractions. Those have been separately proteolytically digested and analysed (Fig. 3A). The perturbations with the 3-Et-NQ and 3-Morph-NQ complexes were performed against their respective solvent-treated controls (CON), yielding a total of 72 samples. […] Statistical significance of individual protein regulations was calculated by multiple testing-corrected P-values based on 5% false discovery rate (FDR = 0.05 and S0 = 0.1).
The position of each group represents the summed fold-changes of the individual proteins in the group according to the subcellular space, i.e., CYT and NE fractions, while the size represents the number of proteins in each group. […]
Proteome profiling of compound-treated SW480 cancer cells […]
cells per well and left to adhere in complete cell culture medium. After 24 h, the medium was exchanged with fresh complete medium (DMSO mock control) or fresh medium containing […]
solution in DMSO, respectively) and incubated for another 24 h. Each condition was carried out in hexuplicates. The cells were processed according to a nucleocytoplasmic fractionation protocol as previously described.3 All steps were performed on ice. The medium was removed, and the cells were washed twice with 1×PBS (phosphate buffered saline, 3 mL). Then, PBS was thoroughly removed. Isotonic lysis buffer (10 mM HEPES, 10 mM NaCl, 3.5 mM MgCl2, 1 mM EGTA, 0.25 M Sucrose, 0.5% Triton X-100) containing protease inhibitors (1% PMSF, Sigma, and 1% protease and phosphatase inhibitor cocktail, Roche) was added to the flasks, the cells were scraped off and transferred into labelled 15 mL Falcon tubes. The cellular membrane was ruptured using shear stress by pressing the cell suspension through a syringe 9–12 times. Membrane rupture with intact nuclei was monitored under a microscope. After centrifugation (960 g, 5 min), the supernatant containing the cytoplasmic (CYT) proteins was transferred into new tubes containing ice-cold ethanol (1 : 5, HPLC grade) and precipitated […]
overnight at –20 °C. The pellet containing the nuclei was incubated with a hypertonic solution (10 mM Tris-HCl, 1 mM EDTA and 0.5 M NaCl) and subsequently diluted 1:10 with NP-40 buffer (10 mm Tris-HCl, 1 mm EDTA and 0.5% Triton X-100) containing protease inhibitors (1% PMSF, Sigma, and 1% protease and phosphatase inhibitor cocktail, Roche). After centrifugation (960 g, 5 min), the soluble nuclear (NE) proteins were also transferred into new tubes containing ice-cold ethanol (1 : 5, HPLC grade) and precipitated overnight at –20 °C.
The precipitated proteins were finally pelleted by centrifugation (5000 g, 30 min, 4 °C), the solution was decanted and the pellet dried under vacuum.

[1] = cytoplasmic fraction, FDR = 0.05, S0 = 0.1
[2] = nuclear fraction, FDR = 0.05, S0 = 0.1

Cc1ccc(C(C)C)cc1.O=C1C(CN2CCOCC2)=C2[O][Ru][O]C2(n2cccn2)c2ccccc21 (stereo not shown) [Compound 1b]
N° significantly regulated proteins, Total (CYT and NE): 1498
GO BP Cell cycle, summed fold-changes (CYT fraction): -2.0
GO BP Cell division, summed fold-changes (CYT fraction): 1.8
GO BP Chromatin organization, summed fold-changes (CYT fraction): -9.6
GO BP DNA damage response, summed fold-changes (CYT fraction): -1.3
GO BP DNA repair, summed fold-changes (CYT fraction): -5.7
GO BP DNA replication, summed fold-changes (CYT fraction): -0.75
GO BP Intracellular protein transport, summed fold-changes (CYT fraction): -1.2
GO BP Mitotic cytokinesis, summed fold-changes (CYT fraction): 0.635
GO BP Negative regulation of DNA-templated transcription, summed fold-changes (CYT fraction): -4.7
GO BP Nucleocytoplasmic transport, summed fold-changes (CYT fraction): 0.157
GO BP Positive regulation of DNA-templated transcription, summed fold-changes (CYT fraction): -4.1
GO BP Proteasome-mediated ubiquitin-dependent protein catabolic process, summed fold-changes (CYT fraction): 0.556
GO BP Protein folding, summed fold-changes (CYT fraction): 0.665
GO BP Protein stabilization, summed fold-changes (CYT fraction): 1.4
GO BP Protein transport, summed fold-changes (CYT fraction): -4.1
GO BP Purine nucleotide biosynthetic process, summed fold-changes (CYT fraction): -1.4
GO BP RNA splicing, summed fold-changes (CYT fraction): 2.7
GO BP Regulation of apoptotic process, summed fold-changes (CYT fraction): -0.9
GO BP Regulation of cell fate specification, summed fold-changes (CYT fraction): -2.6
GO BP Regulation of double-strand break repair, summed fold-changes (CYT fraction): -0.5
GO BP Regulation of stem cell differentiation, summed fold-changes (CYT fraction): -2.1
GO BP Response to oxidative stress, summed fold-changes (CYT fraction): -2.8
GO BP Ribosomal small subunit biogenesis, summed fold-changes (CYT fraction): 3.8
GO BP Ribosome biogenesis, summed fold-changes (CYT fraction): 1.0
GO BP Ubiquitin-dependent protein catabolic process, summed fold-changes (CYT fraction): -4.3
GO BP Vesicle-mediated transport, summed fold-changes (CYT fraction): -2.0
GO BP mRNA processing, summed fold-changes (CYT fraction): 2.8
GO BP mRNA splicing, via spliceosome, summed fold-changes (CYT fraction): 5.8
GO BP mRNA transport, summed fold-changes (CYT fraction): 3.1
GO BP rRNA processing, summed fold-changes (CYT fraction): 6.9
GO CC Azurophil granule lumen, summed fold-changes (CYT fraction): -3.8
GO CC Chromatin, summed fold-changes (CYT fraction): -3.8
GO CC Chromosome, centromeric region, summed fold-changes (CYT fraction): 2.2
GO CC Chromosome, summed fold-changes (CYT fraction): 0.0303
GO CC Chromosome, telomeric region, summed fold-changes (CYT fraction): -5.4
GO CC Condensin complex, summed fold-changes (CYT fraction): 1.7
GO CC Cytoskeleton, summed fold-changes (CYT fraction): 2.2
GO CC Endosome, summed fold-changes (CYT fraction): -2.0
GO CC Extracellular exosome, summed fold-changes (CYT fraction): -48.5
GO CC Fibrillar center, summed fold-changes (CYT fraction): 1.3
GO CC Ficolin-1-rich granule lumen, summed fold-changes (CYT fraction): -4.9
GO CC Focal adhesion, summed fold-changes (CYT fraction): -5.9
GO CC Intracellular membrane-bounded organelle, summed fold-changes (CYT fraction): -2.0
GO CC Kinetochore, summed fold-changes (CYT fraction): 1.6
GO CC Lipid droplet, summed fold-changes (CYT fraction): -1.3
GO CC Lysosome, summed fold-changes (CYT fraction): -2.9
GO CC Microtubule cytoskeleton, summed fold-changes (CYT fraction): 1.6
GO CC Mitochondrion, summed fold-changes (CYT fraction): -13.5
GO CC Nuclear envelope, summed fold-changes (CYT fraction): -0.6
GO CC Nuclear speck, summed fold-changes (CYT fraction): 3.4
GO CC Nucleolus, summed fold-changes (CYT fraction): 1.4
GO CC Nucleoplasm, summed fold-changes (CYT fraction): -8.6
GO CC Nucleus, summed fold-changes (CYT fraction): -23.5
GO CC Proteasome complex, summed fold-changes (CYT fraction): 0.475
GO CC Protein-containing complex, summed fold-changes (CYT fraction): -2.9
GO CC Ribonucleoprotein complex, summed fold-changes (CYT fraction): 3.1
GO CC SCAR complex, summed fold-changes (CYT fraction): 0.9
GO CC Small-subunit processome, summed fold-changes (CYT fraction): 4.9
GO CC Spliceosomal complex, summed fold-changes (CYT fraction): 2.7
GO CC Transcription repressor complex, summed fold-changes (CYT fraction): -2.7
GO CC Vesicle, summed fold-changes (CYT fraction): -2.7
KEGG pathway ATP-dependent chromatin remodeling, summed fold-changes (CYT fraction): -1.8
KEGG pathway Apoptosis, summed fold-changes (CYT fraction): 2.5
KEGG pathway Basal transcription factors, summed fold-changes (CYT fraction): -1.0
KEGG pathway Biosynthesis of amino acids, summed fold-changes (CYT fraction): -5.4
KEGG pathway Biosynthesis of cofactors, summed fold-changes (CYT fraction): 2.8
KEGG pathway Cell cycle, summed fold-changes (CYT fraction): -3.3
KEGG pathway Nucleocytoplasmic transport, summed fold-changes (CYT fraction): 0.8
KEGG pathway Polycomb repressive complex, summed fold-changes (CYT fraction): -2.9
KEGG pathway Proteasome, summed fold-changes (CYT fraction): -0.152
KEGG pathway Ribosome biogenesis in eukaryotes, summed fold-changes (CYT fraction): 1.9
GO BP Cell cycle, summed fold-changes (NE fraction): 26.1
GO BP Cell division, summed fold-changes (NE fraction): 26.9
GO BP Chromatin organization, summed fold-changes (NE fraction): 28.0
GO BP DNA damage response, summed fold-changes (NE fraction): 22.6
GO BP DNA repair, summed fold-changes (NE fraction): 35.2
GO BP DNA replication, summed fold-changes (NE fraction): 6.1
GO BP Intracellular protein transport, summed fold-changes (NE fraction): -31.2
GO BP Mitotic cytokinesis, summed fold-changes (NE fraction): 4.0
GO BP Negative regulation of DNA-templated transcription, summed fold-changes (NE fraction): 65.6
GO BP Nucleocytoplasmic transport, summed fold-changes (NE fraction): 26.1
GO BP Positive regulation of DNA-templated transcription, summed fold-changes (NE fraction): 71.8
GO BP Proteasome-mediated ubiquitin-dependent protein catabolic process, summed fold-changes (NE fraction): 26.0
GO BP Protein folding, summed fold-changes (NE fraction): -27.7
GO BP Protein stabilization, summed fold-changes (NE fraction): -4.7
GO BP Protein transport, summed fold-changes (NE fraction): -9.8
GO BP Purine nucleotide biosynthetic process, summed fold-changes (NE fraction): -7.4
GO BP RNA splicing, summed fold-changes (NE fraction): 29.0
GO BP Regulation of apoptotic process, summed fold-changes (NE fraction): 4.6
GO BP Regulation of cell fate specification, summed fold-changes (NE fraction): 10.8
GO BP Regulation of double-strand break repair, summed fold-changes (NE fraction): 14.0
GO BP Regulation of stem cell differentiation, summed fold-changes (NE fraction): 12.8
GO BP Response to oxidative stress, summed fold-changes (NE fraction): -22.0
GO BP Ribosomal small subunit biogenesis, summed fold-changes (NE fraction): 25.3
GO BP Ribosome biogenesis, summed fold-changes (NE fraction): 6.9
GO BP Ubiquitin-dependent protein catabolic process, summed fold-changes (NE fraction): 4.9
GO BP Vesicle-mediated transport, summed fold-changes (NE fraction): -26.9
GO BP mRNA processing, summed fold-changes (NE fraction): 25.4
GO BP mRNA splicing, via spliceosome, summed fold-changes (NE fraction): 37.9
GO BP mRNA transport, summed fold-changes (NE fraction): 17.5
GO BP rRNA processing, summed fold-changes (NE fraction): 40.4
GO CC Azurophil granule lumen, summed fold-changes (NE fraction): -24.9
GO CC Chromatin, summed fold-changes (NE fraction): 92.4
GO CC Chromosome, centromeric region, summed fold-changes (NE fraction): 9.3
GO CC Chromosome, summed fold-changes (NE fraction): 28.8
GO CC Chromosome, telomeric region, summed fold-changes (NE fraction): 30.4
GO CC Condensin complex, summed fold-changes (NE fraction): 1.4
GO CC Cytoskeleton, summed fold-changes (NE fraction): -23.7
GO CC Endosome, summed fold-changes (NE fraction): -21.5
GO CC Extracellular exosome, summed fold-changes (NE fraction): -325.4
GO CC Fibrillar center, summed fold-changes (NE fraction): 22.1
GO CC Ficolin-1-rich granule lumen, summed fold-changes (NE fraction): -29.3
GO CC Focal adhesion, summed fold-changes (NE fraction): -55.9
GO CC Intracellular membrane-bounded organelle, summed fold-changes (NE fraction): -21.7
GO CC Kinetochore, summed fold-changes (NE fraction): 23.6
GO CC Lipid droplet, summed fold-changes (NE fraction): -14.4
GO CC Lysosome, summed fold-changes (NE fraction): -44.7
GO CC Microtubule cytoskeleton, summed fold-changes (NE fraction): -18.2
GO CC Mitochondrion, summed fold-changes (NE fraction): -134.2
GO CC Nuclear envelope, summed fold-changes (NE fraction): 21.5
GO CC Nuclear speck, summed fold-changes (NE fraction): 55.6
GO CC Nucleolus, summed fold-changes (NE fraction): 104.6
GO CC Nucleoplasm, summed fold-changes (NE fraction): 270.4
GO CC Nucleus, summed fold-changes (NE fraction): 135.2
GO CC Proteasome complex, summed fold-changes (NE fraction): 12.2
GO CC Protein-containing complex, summed fold-changes (NE fraction): -21.9
GO CC Ribonucleoprotein complex, summed fold-changes (NE fraction): 3.5
GO CC SCAR complex, summed fold-changes (NE fraction): -6.0
GO CC Small-subunit processome, summed fold-changes (NE fraction): 29.5
GO CC Spliceosomal complex, summed fold-changes (NE fraction): 22.0
GO CC Transcription repressor complex, summed fold-changes (NE fraction): 12.8
GO CC Vesicle, summed fold-changes (NE fraction): -24.1
KEGG pathway ATP-dependent chromatin remodeling, summed fold-changes (NE fraction): 35.8
KEGG pathway Apoptosis, summed fold-changes (NE fraction): -20.6
KEGG pathway Basal transcription factors, summed fold-changes (NE fraction): 10.6
KEGG pathway Biosynthesis of amino acids, summed fold-changes (NE fraction): -32.4
KEGG pathway Biosynthesis of cofactors, summed fold-changes (NE fraction): -31.7
KEGG pathway Cell cycle, summed fold-changes (NE fraction): 19.2
KEGG pathway Nucleocytoplasmic transport, summed fold-changes (NE fraction): 34.5
KEGG pathway Polycomb repressive complex, summed fold-changes (NE fraction): 17.0
KEGG pathway Proteasome, summed fold-changes (NE fraction): 16.8
KEGG pathway Ribosome biogenesis in eukaryotes, summed fold-changes (NE fraction): 28.9
N° proteins down-regulated, CYT [1]: 8
N° proteins upregulated, CYT [1]: 8
N° proteins down-regulated, NE [2]: 772
N° proteins upregulated, NE [2]: 710
regulated proteins in CYT (up- and down-regulated): 16
